According to US7560466B2, “Methods of treating or preventing autoimmune diseases with 2,4-pyrimidinediamine compounds” (Rigel Pharmaceuticals, Inc., priority 2003, dated 2009):
Where a name gives a salt, the structure may show the parent alone.

These compounds were tested on cultured human mast cells (CHMC), IgE-induced degranulation (assay: CHMC low cell density IgE activation: tryptase assay). Settings: CHMC low cell density, 3pt, read-out: LD Tryptase, CHMC, IgE, 3pt.
Format: cell-based
Outline: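 Cord-blood CD34+-derived mucosal mast cells (SCF/IL-6 medium), 1000–1500 cells/well, preincubated with compound 1 h at 37°C, then anti-IgE stimulated 30 min at 37°C.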

**Q.** `C[C@@H]1Oc2ccc(Nc3nc(Nc4ccc5c(c4)nc(CN4CCOCC4)n5C)ncc3F)cc2NC1=O` [Compound 957, (S)-5-Fluoro-N2-[1-methyl-2-(4-morpholinomethyl)benzimidazol-5-yl]-N4-(2-methyl-3-oxo-2H,4H-benz[1,4]oxazin-6-yl)--2,4-pyrimidinediamine] was tested. Which IC50 did it give?
**A.** Its IC50 is under 10 µM.

**Q.** How did the IC50 turn out when `Cc1nc2cc(Nc3ncc(F)c(Nc4ccc5c(n4)NC(=O)C(C)(C)O5)n3)ccc2n1CCCNS(C)(=O)=O` [Compound 964, N4-(2,2-Dimethyl-3-oxo-4H-5-pyrido[1,4]oxazin-6-yl)-5-fluoro-N2-[2-methyl-1-[3-(N-methylsulfonylamino)propyl]benzimidazol-5-yl]-2,4-pyrimidinediamine] was run?
**A.** The IC50 was under 10 µM.

**Q.** With `Cn1c(CS(C)(=O)=O)nc2cc(Nc3ncc(F)c(Nc4ccc5c(n4)NC(=O)C(C)(C)O5)n3)ccc21` [Compound 969, N4-(2,2-Dimethyl-3-oxo-4H-5-pyrido[1,4]oxazin-6-yl)-5-fluoro-N2-{1-methyl-2-[(methylsulfonyl)methyl]benzimidazol-5-yl}-2,4-pyrimidinediamine] as the compound, how does the IC50 read?
**A.** The IC50 was under 10 µM.

**Q.** Which IC50 does the source give for `CCN(CC)Cc1nc2cc(Nc3ncc(F)c(Nc4ccc5c(n4)NC(=O)C(C)(C)O5)n3)ccc2n1C` [Compound 974, N2-[2-(N,N-Diethylaminomethyl)-1-methylbenzimidazol-5-yl]-N4-(2,2-dimethyl-3-oxo-4H-5-pyrido[1,4]oxazin-6-yl)-5-fluoro-2,4-pyrimidinediamine] here?
**A.** The IC50 was under 10 µM.

**Q.** For `CNC(=O)COc1cccc(Nc2ncc(F)c(Nc3ccc4c(n3)NC(=O)C(C)(C)O4)n2)c1` [Compound 986, N4-(2,2-Dimethyl-3-oxo-4H-5-pyrid[1,4]oxazin-6-yl)-5-fluoro-N2-[3-(N-methylamino)carbonylmethyleneoxyphenyl]-2,4-pyrimidinediamine Hydrogen Chloride Salt], which IC50 is on record?
**A.** Its IC50 is under 10 µM.

**Q.** How did the IC50 turn out when `CC(C)c1cccc(Nc2ncc(F)c(Nc3ccc4c(n3)NC(=O)C(C)(C)O4)n2)c1` [Compound 1003, N4-(2,2-Dimethyl-3-oxo-4H-5-pyrid[1,4]oxazin-6-yl)-5-fluoro-N2-(3-isopropylphenyl)-2,4-pyrimidinediamine] was run?
**A.** Its IC50 is under 10 µM.

Same assay, conditions: CHMC low cell density, 8pt, read-out: LD Tryptase, CHMC, IgE, 8pt

**Q.** Which IC50 does the source give for `C[C@@H]1Oc2ccc(Nc3nc(Nc4ccc5c(c4)nc(CN4CCOCC4)n5C)ncc3F)cc2NC1=O` [Compound 957, (S)-5-Fluoro-N2-[1-methyl-2-(4-morpholinomethyl)benzimidazol-5-yl]-N4-(2-methyl-3-oxo-2H,4H-benz[1,4]oxazin-6-yl)--2,4-pyrimidinediamine] here?
**A.** The IC50 was under 10 µM.

**Q.** For `Cn1c(CN2CCOCC2)nc2cc(Nc3ncc(F)c(Nc4ccc5c(n4)NC(=O)C(C)(C)O5)n3)ccc21` [Compound 958, N4-(2,2-Dimethyl-3-oxo-4H-5-pyrido[1,4]oxazin-6-yl)-5-fluoro-N2-[1-methyl-2-(4-morpholinomethyl)benzimidazol-5-yl]-2,4-pyrimidinediamine], which IC50 is on record?
**A.** Its IC50 is under 10 µM.

**Q.** `Cc1nc2cc(Nc3ncc(F)c(Nc4ccc5c(n4)NC(=O)C(C)(C)O5)n3)ccc2n1CCCNS(C)(=O)=O` [Compound 964, N4-(2,2-Dimethyl-3-oxo-4H-5-pyrido[1,4]oxazin-6-yl)-5-fluoro-N2-[2-methyl-1-[3-(N-methylsulfonylamino)propyl]benzimidazol-5-yl]-2,4-pyrimidinediamine] was tested. Which IC50 did it give?
**A.** The IC50 was under 10 µM.

**Q.** With `Cn1c(CS(C)(=O)=O)nc2cc(Nc3ncc(F)c(Nc4ccc5c(n4)NC(=O)C(C)(C)O5)n3)ccc21` [Compound 969, N4-(2,2-Dimethyl-3-oxo-4H-5-pyrido[1,4]oxazin-6-yl)-5-fluoro-N2-{1-methyl-2-[(methylsulfonyl)methyl]benzimidazol-5-yl}-2,4-pyrimidinediamine] as the compound, how does the IC50 read?
**A.** Its IC50 is under 10 µM.

**Q.** `CCN(CC)Cc1nc2cc(Nc3ncc(F)c(Nc4ccc5c(n4)NC(=O)C(C)(C)O5)n3)ccc2n1C` [Compound 974, N2-[2-(N,N-Diethylaminomethyl)-1-methylbenzimidazol-5-yl]-N4-(2,2-dimethyl-3-oxo-4H-5-pyrido[1,4]oxazin-6-yl)-5-fluoro-2,4-pyrimidinediamine] was tested. Which IC50 did it give?
**A.** Its IC50 is under 10 µM.

**Q.** Which IC50 does the source give for `CNC(=O)COc1cccc(Nc2ncc(F)c(Nc3ccc4c(n3)NC(=O)C(C)(C)O4)n2)c1` [Compound 986, N4-(2,2-Dimethyl-3-oxo-4H-5-pyrid[1,4]oxazin-6-yl)-5-fluoro-N2-[3-(N-methylamino)carbonylmethyleneoxyphenyl]-2,4-pyrimidinediamine Hydrogen Chloride Salt] here?
**A.** The IC50 was under 10 µM.

**Q.** `COc1c(C)cc(Nc2ncc(F)c(Nc3ccc4c(c3)NCC(C)(C)O4)n2)cc1Cl` [Compound 1001, N2-(3-Chloro-4-methoxy-5-methylphenyl)-N4-(3,4-dihydro-2,2-dimethyl-4H-benz[1,4]oxazin-6-yl)-5-fluoro-2,4-pyrimidinediamine] was tested. Which IC50 did it give?
**A.** Its IC50 is under 10 µM.

**Q.** How did the IC50 turn out when `COc1cc(Nc2ncc(F)c(Nc3ccc4c(c3)NCC(C)(C)O4)n2)cc(OC)c1` [Compound 1002, N4-(3,4-Dihydro-2,2-dimethyl-4H-benz[1,4]oxazin-6-yl)-N2-(3,5-dimethoxyphenyl)-5-fluoro-2,4-pyrimidinediamine] was run?
**A.** The IC50 was under 10 µM.

**Q.** `CC(C)c1cccc(Nc2ncc(F)c(Nc3ccc4c(n3)NC(=O)C(C)(C)O4)n2)c1` [Compound 1003, N4-(2,2-Dimethyl-3-oxo-4H-5-pyrid[1,4]oxazin-6-yl)-5-fluoro-N2-(3-isopropylphenyl)-2,4-pyrimidinediamine] was tested. Which IC50 did it give?
**A.** The IC50 was under 10 µM.

Same assay, conditions: low cell density CHMC, 3-point, read-out: LD Tryptase, CHMC, IgE, 3pt

**Q.** How did the IC50 turn out when `COc1cccc(Nc2ncc(F)c(Nc3ccc4c(n3)NC(=O)C(C)(C)O4)n2)c1C` [Compound 1065, N4-(2,2-Dimethyl-3-oxo-4H-5-pyrid[1,4]oxazin-6-yl)-5-fluoro-N2-(3-methoxy-2-methylphenyl)-2,4-pyrimidinediamine] was run?
**A.** The IC50 was under 10 µM.

**Q.** How did the IC50 turn out when `COC(=O)COc1cccc(Nc2ncc(F)c(Nc3ccc4c(c3)NC(=O)C(C)(C)O4)n2)c1C` [Compound 1066, N4-(2,2-Dimethyl-3-oxo-4H-benz[1,4]oxazin-6-yl)-5-fluoro-N2-[3-methoxycarbonylmethyleneoxy-2-methylphenyl]-2,4-pyrimidinediamine] was run?
**A.** The IC50 was under 10 µM.

Same assay, conditions: low cell density CHMC, 8-point, read-out: LD Tryptase, CHMC, IgE, 8pt

**Q.** `CC1(C)Oc2ccc(Nc3nc(Nc4ccc(-c5ncco5)cc4)ncc3F)nc2NC1=O` [Compound 1035, N4-(2,2-Dimethyl-3-oxo-4H-5-pyrid[1,4]oxazin-6-yl)-5-fluoro-N2-[4-(oxazol-2-yl)phenyl]-2,4-pyrimidinediamine] was tested. Which IC50 did it give?
**A.** The IC50 was over 10 µM.

**Q.** Which IC50 does the source give for `COc1c(C)cc(Nc2ncc(F)c(Nc3ccc4c(n3)NC(=O)CO4)n2)cc1C` [Compound 1059, N2-(3,5-Dimethyl-4-methoxyphenyl)-5-fluoro-N4-(3-oxo-2H,4H-5-pyrid[1,4]oxazin-6-yl)-2,4-pyrimidinediamine] here?
**A.** The IC50 was under 10 µM.

**Q.** Which IC50 does the source give for `COc1cccc(Nc2ncc(F)c(Nc3ccc4c(n3)NC(=O)CO4)n2)c1C` [Compound 1061, 5-Fluoro-N2-(3-methoxy-2-methylphenyl)-N4-(3-oxo-2H,4H-5-pyrid[1,4]oxazin-6-yl)-2,4-pyrimidinediamine] here?
**A.** The IC50 was under 10 µM.

**Q.** Which IC50 does the source give for `Cc1c(O)cccc1Nc1ncc(F)c(Nc2ccc3c(n2)NC(=O)CO3)n1` [Compound 1063, 5-Fluoro-N2-(3-hydroxy-2-methylphenyl)-N4-(3-oxo-2H,4H-5-pyrid[1,4]oxazin-6-yl)-2,4-pyrimidinediamine] here?
**A.** Its IC50 is under 10 µM.

**Q.** With `Cc1c(O)cccc1Nc1ncc(F)c(Nc2ccc3c(n2)NC(=O)C(C)(C)O3)n1` [Compound 1064, N4-(2,2-Dimethyl-3-oxo-4H-5-pyrid[1,4]oxazin-6-yl)-5-fluoro-N2-(3-hydroxy-2-methylphenyl)-2,4-pyrimidinediamine] as the compound, how does the IC50 read?
**A.** The IC50 was under 10 µM.

**Q.** Which IC50 does the source give for `CNC(=O)COc1cccc(Nc2ncc(F)c(Nc3ccc4c(c3)NC(=O)C(C)(C)O4)n2)c1C` [Compound 1067, N4-(2,2-Dimethyl-3-oxo-4H-benz[1,4]oxazin-6-yl)-5-fluoro-N2-[2-methyl-3-(N-methylamino)carbonylmethyleneoxyphenyl]-2,4-pyrimidinediamine] here?
**A.** The IC50 was under 10 µM.

**Q.** How did the IC50 turn out when `CNC(=O)COc1cccc(Nc2ncc(F)c(Nc3ccc4c(n3)NC(=O)CO4)n2)c1C` [Compound 1068, 5-Fluoro-N2-[2-methyl-3-(N-methylamino)carbonylmethyleneoxyphenyl]-N4-(3-oxo-2H,4H-5-pyrid[1,4]oxazin-6-yl)-2,4-pyrimidinediamine] was run?
**A.** Its IC50 is under 10 µM.

**Q.** With `Cc1cc(Nc2ncc(F)c(Nc3ccc4c(n3)NC(=O)CO4)n2)cc(C)c1O` [Compound 1069, N2-(3,5-Dimethyl-4-hydroxyphenyl)-5-fluoro-N4-(3-oxo-2H,4H-5-pyrid[1,4]oxazin-6-yl)-2,4-pyrimidinediamine] as the compound, how does the IC50 read?
**A.** The IC50 was under 10 µM.

**Q.** With `CCOC(=O)N1CCN(c2cccc(Nc3ncc(F)c(Nc4ccc5c(n4)NC(=O)CO5)n3)c2)CC1` [Compound 1070, N2-[3-(4-Ethoxycarbonylpiperazino)phenyl]-5-fluoro-N4-(3-oxo-2H,4H-5-pyrid[1,4]oxazin-6-yl)-2,4-pyrimidinediamine] as the compound, how does the IC50 read?
**A.** Its IC50 is under 10 µM.

**Q.** Which IC50 does the source give for `CC(=O)N1CCN(c2cccc(Nc3ncc(F)c(Nc4ccc5c(n4)NC(=O)CO5)n3)c2)CC1` [Compound 1071, N2-[3-(4-Acetylpiperazino)phenyl]-5-fluoro-N4-(3-oxo-2H,4H-5-pyrid[1,4]oxazin-6-yl)-2,4-pyrimidinediamine] here?
**A.** Its IC50 is under 10 µM.

**Q.** Which IC50 does the source give for `CCOC(=O)N1CCN(c2ccc(Nc3ncc(F)c(Nc4ccc5c(n4)NC(=O)CO5)n3)cc2)CC1` [Compound 1072, N2-[4-(4-Ethoxycarbonylpiperazino)phenyl]-5-fluoro-N4-(3-oxo-2H,4H-5-pyrid[1,4]oxazin-6-yl)-2,4-pyrimidinediamine] here?
**A.** Its IC50 is under 10 µM.

**Q.** `O=C1COc2ccc(Nc3nc(Nc4cccc(N5CCOCC5)c4)ncc3F)nc2N1` [Compound 1073, 5-Fluoro-N2-(3-morpholinophenyl)-N4-(3-oxo-2H,4H-5-pyrid[1,4]oxazin-6-yl)-2,4-pyrimidinediamine] was tested. Which IC50 did it give?
**A.** Its IC50 is under 10 µM.

**Q.** For `CN1CCN(c2cccc(Nc3ncc(F)c(Nc4ccc5c(n4)NC(=O)CO5)n3)c2)CC1` [Compound 1074, 5-Fluoro-N2-[3-(4-methylpiperazion)phenyl]-N4-(3-oxo-2H,4H-5-pyrid[1,4]oxazin-6-yl)-2,4-pyrimidinediamine], which IC50 is on record?
**A.** The IC50 was under 10 µM.

**Q.** With `CCOC(=O)N1CCN(c2cccc(Nc3ncc(F)c(Nc4ccc5c(n4)NC(=O)C(C)(C)O5)n3)c2)CC1` [Compound 1075, N4-(2,2-Dimethyl-3-oxo-4H-5-pyrid[1,4]oxazin-6-yl)-N2-[3-(4-ethoxycarbonylpiperazino)phenyl]-5-fluoro-2,4-pyrimidinediamine] as the compound, how does the IC50 read?
**A.** Its IC50 is under 10 µM.

**Q.** Which IC50 does the source give for `CC(=O)N1CCN(c2cccc(Nc3ncc(F)c(Nc4ccc5c(n4)NC(=O)C(C)(C)O5)n3)c2)CC1` [Compound 1076, N2-[3-(4-Acetylpiperazino)phenyl]-N4-(2,2-dimethyl-3-oxo-4H-5-pyrid[1,4]oxazin-6-yl)-5-fluoro-2,4-pyrimidinediamine] here?
**A.** Its IC50 is under 10 µM.

**Q.** How did the IC50 turn out when `CCOC(=O)N1CCN(c2ccc(Nc3ncc(F)c(Nc4ccc5c(n4)NC(=O)C(C)(C)O5)n3)cc2)CC1` [Compound 1077, N4-(2,2-Dimethyl-3-oxo-4H-5-pyrid [1,4]oxazin-6-yl)-N2-[4-(4-ethoxycarbonylpiperazino)phenyl]-5-fluoro-2,4-pyrimidinediamine] was run?
**A.** The IC50 was under 10 µM.

**Q.** How did the IC50 turn out when `CC1(C)Oc2ccc(Nc3nc(Nc4cccc(N5CCOCC5)c4)ncc3F)nc2NC1=O` [Compound 1078, N4-(2,2-Dimethyl-3-oxo-4H-5-pyrid[1,4]oxazin-6-yl)-5-fluoro-N2-(3-morpholinophenyl)-2,4-pyrimidinediamine] was run?
**A.** Its IC50 is under 10 µM.

**Q.** How did the IC50 turn out when `CNC(=O)COc1cccc(Nc2ncc(F)c(Nc3ccc4c(n3)NC(=O)C(C)(C)O4)n2)c1C` [Compound 1079, N4-(2,2-Dimethyl-3-oxo-4H-5-pyrid [1,4]oxazin-6-yl)-5-fluoro-N2-[2-methyl-3-(N-methylamino)carbonylmethyleneoxyphenyl]-2,4-pyrimidinediamine] was run?
**A.** Its IC50 is under 10 µM.

**Q.** With `CN1CCN(c2cccc(Nc3ncc(F)c(Nc4ccc5c(n4)NC(=O)C(C)(C)O5)n3)c2)CC1` [Compound 1080, N4-(2,2-Dimethyl-3-oxo-4H-5-pyrid [1,4]oxazin-6-yl)-5-fluoro-N2-[3-(4-methylpiperazino)phenyl]-2,4-pyrimidinediamine] as the compound, how does the IC50 read?
**A.** Its IC50 is under 10 µM.
